Measured values from patent US7368432B2 (Xenome, Ltd., priority 1999, dated 2008).

Columns and labels:
CF-1 mice = settings: in vivo
[1] = in vivo
mice [2] = settings: mouse, in vivo
mice [3] = settings: mouse, in vivo; remark: listed apart in the source

## NGVCCGYKLCHOC [Mar1]
CF-1 mice
  analgesic activity in mouse hot plate assay: potent analgesics
CF-1 mice; mouse
  increase in the latency to first hind paw lick: dose-dependent
  latency to first hind paw lick: 39.5 ± 13.5 s
  latency to lick the hind paw: significantly increased
[1]
  activity in formalin test (licking time): active
Mice [2]
  symptoms after high-dose i.c.v. administration: akinesia and seizures
  symptoms after i.c.v. injection of HPLC fractions: hypokinetic “sluggish” symptoms
Mice [3]
  activity in tail-flick model: active
  effective dose range: low nanomole range
  response latency in the tail flick model: reduced the response latency
